Test results published in patent US20240208992A1, “MACROCYCLES AS CFTR MODULATORS” (Idorsia Pharmaceuticals Ltd, priority 2021, published 2024).

Molecular target: human F508del-CFTR (Homo sapiens, UniProt P13569, DEL508-508)
Experiment: F508del-CFTR cell surface expression (corrector activity), DiscoveRx ß-galactosidase complementation chemiluminescence assay in recombinant U2OS cell line;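 also: U2OS cells co-expressing ProLink-tagged F508del-CFTR and a membrane-anchored enzyme acceptor, where more surface CFTR restores β-galactosidase activity measured by chemiluminescence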
Details: U2OS cells, 16h compound incubation; for EC50: EC50, F508del-CFTR cell surface expression, geomean of several measurements; for Emax: U2OS, in relation to the Emax of the corrector lumacaftor (=100%), arithmetic mean

human F508del-CFTR, sequence (P13569 with tags, fused parts or gaps DEL508-508): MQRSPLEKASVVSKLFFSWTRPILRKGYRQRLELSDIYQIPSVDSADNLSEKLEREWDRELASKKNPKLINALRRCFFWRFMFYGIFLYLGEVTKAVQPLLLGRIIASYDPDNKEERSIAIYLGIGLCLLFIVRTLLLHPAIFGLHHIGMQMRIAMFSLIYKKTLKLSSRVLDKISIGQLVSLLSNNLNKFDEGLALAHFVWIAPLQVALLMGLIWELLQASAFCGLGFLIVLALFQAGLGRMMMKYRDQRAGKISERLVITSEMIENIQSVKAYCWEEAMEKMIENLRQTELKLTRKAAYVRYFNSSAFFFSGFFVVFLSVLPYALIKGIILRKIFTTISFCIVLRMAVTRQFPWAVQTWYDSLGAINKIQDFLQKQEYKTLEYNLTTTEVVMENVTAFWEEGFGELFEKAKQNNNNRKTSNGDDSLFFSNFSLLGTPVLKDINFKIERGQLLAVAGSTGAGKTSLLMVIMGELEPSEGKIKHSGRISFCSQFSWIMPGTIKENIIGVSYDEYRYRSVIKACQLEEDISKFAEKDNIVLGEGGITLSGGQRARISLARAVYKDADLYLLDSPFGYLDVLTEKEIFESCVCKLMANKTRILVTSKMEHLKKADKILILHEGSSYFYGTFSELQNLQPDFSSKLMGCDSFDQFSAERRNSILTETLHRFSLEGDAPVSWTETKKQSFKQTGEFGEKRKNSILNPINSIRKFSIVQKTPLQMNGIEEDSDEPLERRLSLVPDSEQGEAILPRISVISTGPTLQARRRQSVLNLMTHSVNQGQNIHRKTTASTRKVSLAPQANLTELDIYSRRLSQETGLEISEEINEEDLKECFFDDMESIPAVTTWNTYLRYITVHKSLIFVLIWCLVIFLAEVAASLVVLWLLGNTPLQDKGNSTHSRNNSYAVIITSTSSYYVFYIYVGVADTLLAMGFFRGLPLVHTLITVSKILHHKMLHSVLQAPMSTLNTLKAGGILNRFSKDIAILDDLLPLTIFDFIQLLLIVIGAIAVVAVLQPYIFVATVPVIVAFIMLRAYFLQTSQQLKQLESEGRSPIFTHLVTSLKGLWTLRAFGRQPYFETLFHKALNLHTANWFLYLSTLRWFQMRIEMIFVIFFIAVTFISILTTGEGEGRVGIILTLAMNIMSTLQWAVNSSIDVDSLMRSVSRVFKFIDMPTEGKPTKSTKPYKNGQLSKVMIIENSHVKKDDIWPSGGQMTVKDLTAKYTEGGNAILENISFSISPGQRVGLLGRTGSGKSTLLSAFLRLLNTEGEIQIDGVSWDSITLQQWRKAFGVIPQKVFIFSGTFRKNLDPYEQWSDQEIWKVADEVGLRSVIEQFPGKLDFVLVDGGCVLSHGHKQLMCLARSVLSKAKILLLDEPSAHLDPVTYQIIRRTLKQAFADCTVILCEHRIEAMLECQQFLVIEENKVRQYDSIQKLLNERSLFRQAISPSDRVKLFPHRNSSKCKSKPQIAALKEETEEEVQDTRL

SMILES: COc1cc(CCNC(=O)[C@@H]2CC(=O)N(C)[C@@H](CC(C)C)C(=O)N(C)C3(CC3)C(=O)N[C@H](Cc3ccccc3)COc3ccc4cnc(C)cc4c3C(=O)N2)on1 [Example 901, (3′S,7′S,13′R)-13′-benzyl-7′-isobutyl-N-(2-(3-methoxyisoxazol-5-yl)ethyl)-6′,9′,20′-trimethyl-1′,5′,8′,11′-tetraoxo-2′,3′,4′,5′,6′,7′,8′,9′,11′,12′,13′,14′-dodecahydro-1′H-spiro[cyclopropane-1,10′-[1]oxa[4,7,10,14]tetraazacycloheptadecino[16,17-f]isoquinoline]-3′-carboxamide]
- EC50: 736 nM
- Emax: 390%

SMILES: COc1nc(C)cc2c1C(=O)N[C@H](C(=O)NCCn1nnc(C3CC3)n1)CC(=O)N(C)[C@@H](CC(C)C)C(=O)N(C)[C@H](Cc1nc(C(F)(F)F)no1)C(=O)N[C@H](Cc1ccccc1)CO2 [Example 902, (3R,6R,9S,13S)-3-benzyl-N-(2-(5-cyclopropyl-2H-tetrazol-2-yl)ethyl)-9-isobutyl-16-methoxy-7,10,18-trimethyl-5,8,11,15-tetraoxo-6-((3-(trifluoromethyl)-1,2,4-oxadiazol-5-yl)methyl)-2,3,4,5,6,7,8,9,10,11,12,13,14,15-tetradecahydropyrido[3,4-p][1]oxa[4,7,10,14]tetraazacycloheptadecine-13-carboxamide]
- EC50: 55 nM
- Emax: 453%

SMILES: COc1nc(C)cc2c1C(=O)N[C@H](C(=O)NCCn1nc3ccccc3n1)CC(=O)N(C)[C@@H](CC(C)C)C(=O)N(C)[C@H](Cc1nc(C(F)(F)F)no1)C(=O)N[C@H](Cc1ccccc1)CO2 [Example 903, (3R,6R,9S,13S)-N-(2-(2H-benzo[d][1,2,3]triazol-2-yl)ethyl)-3-benzyl-9-isobutyl-16-methoxy-7,10,18-trimethyl-5,8,11,15-tetraoxo-6-((3-(trifluoromethyl)-1,2,4-oxadiazol-5-yl)methyl)-2,3,4,5,6,7,8,9,10,11,12,13,14,15-tetradecahydropyrido[3,4-p][1]oxa[4,7,10,14]tetraazacycloheptadecine-13-carboxamide]
- EC50: 51 nM
- Emax: 414%

SMILES: Cc1cc2c3c(ccc2cn1)OC[C@@H](Cc1ccccc1)NC(=O)C1(CC1)N(C)C(=O)[C@H](CC(C)C)N(C)C(=O)C[C@@H](C(=O)NCCn1nc2ccccc2n1)NC3=O [Example 904, (3′S,7′S,13′R)-N-(2-(2H-benzo[d][1,2,3]triazol-2-yl)ethyl)-13′-benzyl-7′-isobutyl-6′,9′,20′-trimethyl-1′,5′,8′,11′-tetraoxo-2′,3′,4′,5′,6′,7′,8′,9′,11′,12′,13′,14′-dodecahydro-1′H-spiro[cyclopropane-1,10′-[1]oxa[4,7,10,14]tetraazacycloheptadecino[16,17-f]isoquinoline]-3′-carboxamide]
- EC50: 722 nM
- Emax: 365%

SMILES: Cc1cc2c3c(ccc2cn1)OC[C@@H](Cc1ccccc1)NC(=O)[C@@H](Cc1nc(-c2ccc(F)cn2)no1)N(C)C(=O)[C@H](CC(C)C)N(C)C(=O)C[C@@H](C(=O)NCCc1noc(C2CC2)n1)NC3=O [Example 905]
- EC50: 311 nM
- Emax: 415%

SMILES: COc1cc(CCNC(=O)[C@@H]2CC(=O)N(C)[C@@H](CC(C)C)C(=O)N(C)[C@H](Cc3nc(-c4ccc(F)cn4)no3)C(=O)N[C@H](Cc3ccccc3)COc3ccc4cnc(C)cc4c3C(=O)N2)on1 [Example 906, (3S,7S,10R,13R)-13-benzyl-10-((3-(5-fluoropyridin-2-yl)-1,2,4-oxadiazol-5-yl)methyl)-7-isobutyl-N-(2-(3-methoxyisoxazol-5-yl)ethyl)-6,9,20-trimethyl-1,5,8,11-tetraoxo-1,2,3,4,5,6,7,8,9,10,11,12,13,14-tetradecahydro-[1]oxa[4,7,10,14]tetraazacycloheptadecino[16,17-f]isoquinoline-3-carboxamide]
- EC50: 294 nM
- Emax: 433%

SMILES: Cc1cc2c3c(ccc2cn1)OC[C@@H](Cc1ccccc1)NC(=O)[C@@H](Cc1nc(-c2ccc(F)cn2)no1)N(C)C(=O)[C@H](CC(C)C)N(C)C(=O)C[C@@H](C(=O)NCCn1nnc(C2CC2)n1)NC3=O [Example 907]
- EC50: 425 nM
- Emax: 454%

SMILES: CC(C)C[C@H]1C(=O)N(C)[C@H](Cc2nc(C(F)(F)F)no2)C(=O)N[C@H](Cc2ccccc2)COc2ccc3ncc(F)cc3c2C(=O)N[C@H](C(=O)NCCc2nc3ncccn3n2)CC(=O)N1C [Example 908, (3S,7S,10R,13R)-N-(2-([1,2,4]triazolo[1,5-a]pyrimidin-2-yl)ethyl)-13-benzyl-20-fluoro-7-isobutyl-6,9-dimethyl-1,5,8,11-tetraoxo-10-((3-(trifluoromethyl)-1,2,4-oxadiazol-5-yl)methyl)-1,2,3,4,5,6,7,8,9,10,11,12,13,14-tetradecahydro-[1]oxa[4,7,10,14]tetraazacycloheptadecino[16,17-f]quinoline-3-carboxamide]
- EC50: 94 nM
- Emax: 401%

SMILES: COc1cc(CCNC(=O)[C@@H]2CC(=O)N(C)[C@@H](CC(C)C)C(=O)N(C)[C@H](Cc3nc(C(F)(F)F)no3)C(=O)N[C@H](Cc3ccccc3)COc3cc(C)c4ncccc4c3C(=O)N2)on1 [Example 909, (3S,7S,10R,13R)-13-benzyl-7-isobutyl-N-(2-(3-methoxyisoxazol-5-yl)ethyl)-6,9,17-trimethyl-1,5,8,11-tetraoxo-10-((3-(trifluoromethyl)-1,2,4-oxadiazol-5-yl)methyl)-1,2,3,4,5,6,7,8,9,10,11,12,13,14-tetradecahydro-[1]oxa[4,7,10,14]tetraazacycloheptadecino[16,17-f]quinoline-3-carboxamide]
- EC50: 17 nM
- Emax: 430%

SMILES: CCOCC[C@@H]1C(=O)N[C@H](Cc2ccccc2)COc2cc(C)nc(OC)c2C(=O)N[C@H](C(=O)NCCc2cc(C3CC3)no2)CC(=O)N(C)[C@@H](CC(C)C)C(=O)N1C [Example 910, (3R,6R,9S,13S)-3-benzyl-N-(2-(3-cyclopropylisoxazol-5-yl)ethyl)-6-(2-ethoxyethyl)-9-isobutyl-16-methoxy-7,10,18-trimethyl-5,8,11,15-tetraoxo-2,3,4,5,6,7,8,9,10,11,12,13,14,15-tetradecahydropyrido[3,4-p][1]oxa[4,7,10,14]tetraazacycloheptadecine-13-carboxamide]
- EC50: 477 nM
- Emax: 423%

SMILES: COc1noc(CCNC(=O)[C@@H]2CC(=O)N(C)[C@@H](CC(C)C)C(=O)N(C)C3(CC3)C(=O)N[C@H](Cc3ccccc3)COc3ccc4ncc(F)cc4c3C(=O)N2)n1 [Example 911, (3′S,7′S,13′R)-13′-benzyl-20′-fluoro-7′-isobutyl-N-(2-(3-methoxy-1,2,4-oxadiazol-5-yl)ethyl)-6′,9′-dimethyl-1′,5′,8′,11′-tetraoxo-2′,3′,4′,5′,6′,7′,8′,9′,11′,12′,13′,14′-dodecahydro-1′H-spiro[cyclopropane-1,10′-[1]oxa[4,7,10,14]tetraazacycloheptadecino[16,17-f]quinoline]-3′-carboxamide]
- EC50: 531 nM
- Emax: 341%

SMILES: COc1cc(CCNC(=O)[C@@H]2CC(=O)N(C)[C@@H](CC(C)C)C(=O)N3CCCC[C@@H]3C(=O)N[C@H](Cc3ccccc3)COc3ccc4ncccc4c3C(=O)N2)on1 [Example 912, (9S,13S,19aR,22R)-22-benzyl-13-isobutyl-N-(2-(3-methoxyisoxazol-5-yl)ethyl)-12-methyl-7,11,14,20-tetraoxo-7,8,9,10,11,12,13,14,17,18,19,19a,20,21,22,23-hexadecahydro-16H-pyrido[2′,1′:6,7][1]oxa[4,7,10,14]tetraazacycloheptadecino[16,17-f]quinoline-9-carboxamide]
- EC50: 272 nM
- Emax: 332%

SMILES: CCOCC[C@@H]1C(=O)N[C@H](Cc2ccccc2)COc2ccc3cnc(C)cc3c2C(=O)N[C@H](C(=O)NCCc2cc(OC)no2)CC(=O)N(C)[C@@H](CC(C)C)C(=O)N1C [Example 913, (3S,7S,10R,13R)-13-benzyl-10-(2-ethoxyethyl)-7-isobutyl-N-(2-(3-methoxyisoxazol-5-yl)ethyl)-6,9,20-trimethyl-1,5,8,11-tetraoxo-1,2,3,4,5,6,7,8,9,10,11,12,13,14-tetradecahydro-[1]oxa[4,7,10,14]tetraazacycloheptadecino[16,17-f]isoquinoline-3-carboxamide]
- EC50: 294 nM
- Emax: 390%

SMILES: CCOCC[C@@H]1C(=O)N[C@H](Cc2ccccc2)COc2ccc3cnc(C)cc3c2C(=O)N[C@H](C(=O)NCCc2nc(OC)no2)CC(=O)N(C)[C@@H](CC(C)C)C(=O)N1C [Example 914, (3S,7S,10R,13R)-13-benzyl-10-(2-ethoxyethyl)-7-isobutyl-N-(2-(3-methoxy-1,2,4-oxadiazol-5-yl)ethyl)-6,9,20-trimethyl-1,5,8,11-tetraoxo-1,2,3,4,5,6,7,8,9,10,11,12,13,14-tetradecahydro-[1]oxa[4,7,10,14]tetraazacycloheptadecino[16,17-f]isoquinoline-3-carboxamide]
- EC50: 368 nM
- Emax: 358%

SMILES: CCOCC[C@@H]1C(=O)N[C@H](Cc2ccccc2)COc2ccc3cnc(C)cc3c2C(=O)N[C@H](C(=O)NCCn2nnc(C3CC3)n2)CC(=O)N(C)[C@@H](CC(C)C)C(=O)N1C [Example 915, (3S,7S,10R,13R)-13-benzyl-N-(2-(5-cyclopropyl-2H-tetrazol-2-yl)ethyl)-10-(2-ethoxyethyl)-7-isobutyl-6,9,20-trimethyl-1,5,8,11-tetraoxo-1,2,3,4,5,6,7,8,9,10,11,12,13,14-tetradecahydro-[1]oxa[4,7,10,14]tetraazacycloheptadecino[16,17-f]isoquinoline-3-carboxamide]
- EC50: 334 nM
- Emax: 361%
